Where a name gives a salt, the structure may show the parent alone.
Assays:
[1] = target: T1, Recombinant human renin (Homo sapiens, UniProt P00797); test: Renin inhibition in a purified system (FRET, synthetic substrate Dabcyl-gaba-IHPFHLVIHT-EDANS); type: biochemical; conditions: renin 10 nM, substrate 10 μM, 2 h, room temperature, pH 8
T1 construct: made in house; host or cells: Chinese Hamster Ovary (CHO) cells
T1 sequence (P00797 67-406): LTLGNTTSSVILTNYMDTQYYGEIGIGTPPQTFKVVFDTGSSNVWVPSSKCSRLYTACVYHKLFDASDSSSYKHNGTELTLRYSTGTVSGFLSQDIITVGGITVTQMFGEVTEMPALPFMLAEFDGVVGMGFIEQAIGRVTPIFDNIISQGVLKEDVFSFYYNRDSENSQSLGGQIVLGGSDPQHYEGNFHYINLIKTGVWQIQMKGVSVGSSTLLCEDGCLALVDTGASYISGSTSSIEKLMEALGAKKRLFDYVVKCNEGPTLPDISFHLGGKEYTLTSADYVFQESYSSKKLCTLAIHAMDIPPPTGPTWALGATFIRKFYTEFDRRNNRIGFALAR
Description: The protocol for the determination in a purified system of the in vitro IC50s of the compounds of the invention is described hereafter.
Recombinant human renin (expressed as prorenin in Chinese Hamster Ovary and purified after activation in active renin using standard methods) at 10 nM concentration is incubated with test compounds at various concentrations and the synthetic substrate Dabcyl-gaba-IHPFHLVIHT-EDANS (Bachem) at 10 μM for 2 h at room temperature, in 0.05 M Tris buffer pH 8 containing 0.1 M NaCl, 2.5 mM EDTA and 1.25 mg/ml bovine serum albumin. Increase in fluorescence (due to the Fluorescence Resonance Energy Transfer) is recorded at an excitation wave-length of 330 nm and at an emission wave length of 485 nm in a microplate spectrofluorometer. IC50 values are calculated from the percentage of inhibition of renin activity as a function of test compound concentration.

COCCCOc1cc(CCC(=O)NC(=N)N)ccc1-c1ccc(CN2CCC(N(C)C)CC2)cc1 [Compound 2, N-[amino(imino)methyl]-3-[4′-{[4-(dimethylamino)piperidin-1-yl]methyl}-2-(3-methoxypropoxy)biphenyl-4-yl]propanamide hydrochloride]
IC50 [1]: 19 nM

COCCCOc1cc(C(C)(C)CC(=O)NC(=N)N)ccc1-c1ccc(CN2CCC(N(C)C)CC2)cc1 (as salt: HCl) [Compound 22]
melting point: 105.5 °C

COCCCOc1cc(CCC(=O)NC(=N)N)ccc1-c1ccc(CN2CCN(C)CC2=O)cc1 [Compound 78]
IC50 [1]: 42 nM

CCCNC(=N)NC(=O)CC(C)(C)c1ccc(-c2ccc(C(=O)N3CCN(C)CC3)cc2)c(OCCCOC)c1 [Compound 25, N-[imino(propylamino)methyl]-3-{2-(3-methoxypropoxy)-4′-[(4-methylpiperazin-1-yl)carbonyl]biphenyl-4-yl}-3-methylbutanamide hydrochloride]
IC50 [1]: 228 nM

COCCCOc1cc(CCC(=O)NC2=NC(=O)C(C)(C)CN2)ccc1-c1ccc(CN2CCC(N(C)C)CC2)cc1.Cl
melting point: 132 °C

COCCCOc1cc(CCC(=O)NC(=N)N)ccc1-c1ccc(CN2CCN(C)CC2=O)cc1 (as salt: HCl) [Compound 78]
melting point: 61.5 °C

CNC(=N)NC(=O)CCc1ccc(-c2ccc(Cl)c(CS(=O)(=O)C(C)(C)C)c2)c(OCCCOC)c1 [Compound 194, 3-{3′-[(tert-butylsulfonyl)methyl]-4′-chloro-2-(3-methoxypropoxy)biphenyl-4-yl}-N-(methylcarbamimidoyl)propanamide hydrochloride]
IC50 [1]: 48 nM

COCCCOc1cc(CCC(=O)NC(=N)N)ccc1-c1ccc(CN2CCCCC2)cc1 [Compound 13, N-[amino(imino)methyl]-3-[2-(3-methoxypropoxy)-4′-(piperidin-1-ylmethyl)biphenyl-4-yl]propanamide hydrochloride]
IC50 [1]: 79 nM

COCCCOc1cc(CCC(=O)NC(=N)NCCC(C)C)ccc1-c1ccc(CN2CCC(N(C)C)CC2)cc1 [Compound 11]
IC50 [1]: 23 nM

CCCCNC(=N)NC(=O)CCc1ccc(-c2ccc(CN3CCN(CC(=O)N(C)C)CC3)cc2)c(OCCCOC)c1 [Compound 30]
IC50 [1]: 70 nM

COCCCOc1cc(CCC(=O)NC(=N)N)ccc1-c1cccc(CN2CCCCC2=O)c1 [Compound 179]
IC50 [1]: 19 nM

COCCCOc1cc(C(C)(C)CC(=O)NC(=N)N)ccc1-c1ccc(CN2CCC(N(C)C)CC2)cc1 [Compound 22]
IC50 [1]: 10 nM

COCCCOc1cc(CCC(=O)NC(=N)NCCc2ccccn2)ccc1-c1ccc(CN2CCC(N(C)C)CC2)cc1 [Compound 6]
IC50 [1]: 100 nM

COCCCOc1cc(CCC(=O)NC(=N)NCCc2ccccn2)ccc1-c1ccc(CN2CCC(N(C)C)CC2)cc1 (as salt: HCl) [Compound 6]
melting point: 128 °C

CNC(=N)NC(=O)CCc1ccc(-c2cccc(N(C)C(=O)N3CCOCC3)c2)c(OCCCOC)c1.Cl
melting point: 54 to 55 °C

COCCCOc1cc(CCC(=O)NC(=N)N)ccc1-c1ccc(CN2CCN(C)C2=O)cc1 [Compound 173]
IC50 [1]: 53 nM

COCCCOc1cc(CCC(=O)NC(=N)N)ccc1-c1cccnc1 [Compound 21, hydrochloride]
IC50 [1]: 98 nM

COCCCOc1cc(CCC(=O)NC(=N)N)ccc1-c1nccs1 [Compound 157]
IC50 [1]: 126 nM

CCCCNC(=N)NC(=O)CCc1ccc(-c2ccc(CNCC(c3ccccc3)N(C)C)cc2)c(OCCCOC)c1 (stereo not shown) [Compound 48, N-butyl-N′-{3-[4′-[(2-dimethylamino-2-phenyl-ethylamino)-methyl]-2-(3-methoxy-propoxy)-biphenyl-4-yl]-propionyl}-guanidine, trifluoro-acetic acid salt]
IC50 [1]: 143 nM

Reference: patent US8153647B2, “Aryl- and heteroaryl-ethyl-acylguanidine derivatives, their preparation and their application in therapeutics” (Sanofi-Aventis, priority 2006, dated 2012)
